Reference: patent US10072017B2, “Compounds and methods for the treatment of cystic fibrosis” (Flatley Discovery Lab, LLC, priority 2015, dated 2018)

Biological target: T1, CFTR (Homo sapiens, UniProt P13569, DEL508-508)
T1 construct: Primary CF airway epithelial cells were obtained from the UNC Cystic Fibrosis Tissue Procurement and Cell Culture Core; host or cells: primary CF airway epithelial cells
Test: Equivalent current assay in Primary CF airway epithelial cells (NAUC)
Format: cell-based
Conditions: 24 h, normalized to VX809 (3 μM) positive control; for Nauc @ 3 μM: 3 μM test compound; for Nauc @ 10 μM: 10 μM test compound
Experimental: Primary CF airway epithelial cells were obtained from the UNC Cystic Fibrosis Tissue Procurement and Cell Culture Core. The cells are grown at 37° C. in a Heracell 150i incubator using growth media (BEGM, Fischer). Cells were then transferred to differentiation media (ALI, UNC) for a minimum of 4 weeks on coated Costar snapwells. Two days before the Ussing assay the mucus on the apical surface of the cells was aspirated after incubating with 200 μL of differentiation Media for at least thirty (30) minutes. One day before the Ussing assay test compounds were added to the basolateral surface of the cells at various test concentrations dissolved in DMSO. Duplicate wells were prepared giving a n=3 or n=4 protocol.
Cells were treated for 24 hours with various combinations and concentrations of the test articles, reference standard (3 μM VX809, positive control). Compounds stock solutions were prepared in DMSO and diluted 1/1000 into ALI media to their final assay concentration. Cells were treated with combination solutions (2 mL of each dilution) and incubated at 37° C. for 24 h.
For the equivalent current assay, cells on four Transwell (24-well) plates were treated. Each Transwell plate was filled with 200 μl of HBS on the apical surface and 2 ml on the basolateral surface. Plates were placed horizontally in a heated mount at 37° C., and equilibrated for several minutes. Resting current was measured for 15 min and then blocked by the apical addition of 5 μM benzamil. After 20 min, 10 μM forskolin and 1 μM VX770 were added to both the apical and basolateral side to stimulate CFTR. An increase in chloride current is seen as an upward deflection of the trace. After another 30 min, CFTR-172 (a CFTR inhibitor, 20 μM) and/or bumetanide (20 uM) was added to block CFTR mediated chloride current.
The raw data, current vs. time for the Ussing chamber (sampling interval: 10 s) and voltage vs. time and resistance vs. time for the equivalent current assay (sampling interval: 5 minutes) were transferred to Excel (Microsoft Office Professional, version 14.0.7106.5003) for analysis. CFTR specific current was measured as the average amplitude of the increase in current elicited upon addition forskolin and ending upon addition of the CFTR channel specific blocker CFTR-172. This average is equivalent to the sum of the average forskolin activated and the average VX770-potentiated currents. The average current measured in vehicle (0.1% DMSO) treated cells, Iv, was subtracted from the current for the test article, ITA, or from the corrector reference standard VX809 (3 uM ISTD. For replicate measurements, the average vehicle subtracted response for the test article, was normalized to the average vehicle subtracted inhibitor response of the reference corrector VX809 (3 μM). INSC=(ITA−IV)(ave)/(ISTD−IV)(ave) (Equation 1)
A second endpoint, for the equivalent current assay, evaluated was NAUC, the normalized area under the curve (AUC) measuring the response after addition of forskolin and VX770 to the time point right before the addition of the CFTR inhibitor. The AUC is effectively the average response multiplied by the duration of the response. The AUC of the test article, AUCTA was then corrected by subtracting the average vehicle response, AUCV,ave over the same time range, and normalized as for the inhibitor-sensitive current to the difference of the corrector reference standard VX809 (3 μM VX809r,ave and the vehicle response: NAUCTA=[AUCTA−AUCV,ave]/[AUCVx809r,ave−AUCV,ave] (Equation 2).
The normalized value for DMSO is 0.0 and for VX-809 alone is 1.0. Combinations of compounds with VX-809 that give normalized values greater than 1.0 show activity in the combination assay. A value of 2 means the test compound doubles the effect to VX-809 alone.
Experiments were run with a minimum of n=4 replicates per concentration. […]

T1 sequence (P13569 with tags, fused parts or gaps DEL508-508): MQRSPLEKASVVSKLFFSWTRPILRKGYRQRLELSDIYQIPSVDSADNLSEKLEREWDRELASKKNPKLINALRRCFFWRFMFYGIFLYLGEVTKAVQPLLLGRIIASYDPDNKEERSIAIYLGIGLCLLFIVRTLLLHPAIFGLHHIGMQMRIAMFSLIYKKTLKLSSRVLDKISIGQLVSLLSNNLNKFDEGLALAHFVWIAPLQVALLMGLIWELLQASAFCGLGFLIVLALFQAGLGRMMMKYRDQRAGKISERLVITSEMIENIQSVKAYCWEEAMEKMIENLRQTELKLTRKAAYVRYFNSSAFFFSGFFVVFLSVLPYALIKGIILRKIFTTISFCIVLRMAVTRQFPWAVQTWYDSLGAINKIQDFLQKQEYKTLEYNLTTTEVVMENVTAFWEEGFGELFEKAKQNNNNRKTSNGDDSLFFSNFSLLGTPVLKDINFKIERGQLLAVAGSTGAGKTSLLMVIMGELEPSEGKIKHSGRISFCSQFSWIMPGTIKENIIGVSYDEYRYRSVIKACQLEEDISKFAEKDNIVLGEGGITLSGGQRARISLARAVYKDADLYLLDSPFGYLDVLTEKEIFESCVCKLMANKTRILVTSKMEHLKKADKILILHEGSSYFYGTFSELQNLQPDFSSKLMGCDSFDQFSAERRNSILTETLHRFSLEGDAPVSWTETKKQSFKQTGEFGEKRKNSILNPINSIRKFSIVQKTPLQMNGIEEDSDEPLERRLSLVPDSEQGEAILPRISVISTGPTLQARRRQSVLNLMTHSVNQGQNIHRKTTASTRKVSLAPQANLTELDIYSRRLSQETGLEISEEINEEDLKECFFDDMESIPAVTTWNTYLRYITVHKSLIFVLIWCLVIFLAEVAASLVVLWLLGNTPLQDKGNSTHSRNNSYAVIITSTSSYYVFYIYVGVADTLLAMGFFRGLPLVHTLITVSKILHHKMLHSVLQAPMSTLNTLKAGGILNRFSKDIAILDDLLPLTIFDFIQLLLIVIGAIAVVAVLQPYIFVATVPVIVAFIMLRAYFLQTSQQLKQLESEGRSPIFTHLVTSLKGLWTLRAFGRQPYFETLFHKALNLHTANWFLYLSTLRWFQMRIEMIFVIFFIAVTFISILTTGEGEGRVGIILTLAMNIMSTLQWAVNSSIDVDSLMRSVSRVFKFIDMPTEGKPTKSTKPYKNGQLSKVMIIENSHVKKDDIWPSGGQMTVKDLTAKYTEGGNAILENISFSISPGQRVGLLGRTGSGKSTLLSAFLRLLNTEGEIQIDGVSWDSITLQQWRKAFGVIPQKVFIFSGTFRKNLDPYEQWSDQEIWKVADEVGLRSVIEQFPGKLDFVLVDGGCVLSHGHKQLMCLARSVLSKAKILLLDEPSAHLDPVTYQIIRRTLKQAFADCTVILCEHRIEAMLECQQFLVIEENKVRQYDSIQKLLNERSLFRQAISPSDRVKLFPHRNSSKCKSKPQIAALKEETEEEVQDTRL

Structure (SMILES)	Nauc @ 3 μM	Nauc @ 10 μM
O=C1C2C3CC(=C(F)F)CN3C3(C(=O)Nc4c(Cl)cc(Cl)cc43)C2C(=O)N1c1cc(Br)cc(Br)c1 (stereo not drawn) [Example 123]	+ (NAUC “+” refers to an observed NAUC <140% of positive control)	+++ (NAUC “+++” refers to an observed NAUC >170% of positive control)
CC(=O)O[C@H]1CC2C3C(=O)N(c4cc(Cl)cc(Cl)c4)C(=O)C3C3(C(=O)N(C(C)=O)c4c(Cl)cc(Cl)cc43)N2C1 (stereo partly drawn) [Example 69]	+++ (NAUC “+++” refers to an observed NAUC >170% of positive control)	+ (NAUC “+” refers to an observed NAUC <140% of positive control)
[2H]C12C(=O)N(c3cc(Cl)cc(Cl)c3)C(=O)C1([2H])C1(C(=O)Nc3c(Cl)cc(Cl)cc31)N1C[C@@H](O)CC12 (single isomer, unassigned) [Example 84]	++ (NAUC “++” refers to an observed NAUC 170-140% of positive control)	++ (NAUC “++” refers to an observed NAUC 170-140% of positive control)
COc1cccc(CC2NC3(C(=O)Nc4c(Cl)cc(Cl)cc43)C3C(=O)N(c4cc(Cl)cc(Cl)c4)C(=O)C23)c1 (stereo not drawn) [Example 200]	++ (NAUC “++” refers to an observed NAUC 170-140% of positive control)	+ (NAUC “+” refers to an observed NAUC <140% of positive control)
COc1cc(Cl)cc(N2C(=O)C3C4C[C@H](O)CN4C4(C(=O)Nc5c(Cl)cc(Cl)cc54)C3C2=O)c1 (stereo partly drawn) [Example 74]	+++ (NAUC “+++” refers to an observed NAUC >170% of positive control)	+++ (NAUC “+++” refers to an observed NAUC >170% of positive control)
[2H]C12C(=O)N(c3cc(Cl)cc(OC)c3)C(=O)C1([2H])C1(C(=O)Nc3c(Cl)cc(Cl)cc31)N1C[C@@H](F)CC12 (stereo partly drawn) [Example 145]	+ (NAUC “+” refers to an observed NAUC <140% of positive control)	+++ (NAUC “+++” refers to an observed NAUC >170% of positive control)
COC(=O)c1cccc(N2C(=O)C3C4CCCN4C4(C(=O)Nc5c(Cl)cc(Cl)cc54)C3C2=O)c1 (stereo not drawn) [Example 66]	++ (NAUC “++” refers to an observed NAUC 170-140% of positive control)	++ (NAUC “++” refers to an observed NAUC 170-140% of positive control)
O=C1C2C3C4OC4CN3C3(C(=O)Nc4c(Cl)cc(Cl)cc43)C2C(=O)N1c1cc(Cl)cc(Cl)c1 (stereo not drawn) [Example 94]	++ (NAUC “++” refers to an observed NAUC 170-140% of positive control)	+++ (NAUC “+++” refers to an observed NAUC >170% of positive control)
O=C1C2C3C[C@H](Cl)CN3C3(C(=O)Nc4c(Cl)cc(Cl)cc43)C2C(=O)N1c1cc(Cl)cc(Cl)n1 (stereo partly drawn) [Example 65]	++ (NAUC “++” refers to an observed NAUC 170-140% of positive control)	+++ (NAUC “+++” refers to an observed NAUC >170% of positive control)
C[C@]1(F)CC2C3C(=O)N(c4cc(Cl)cc(Cl)c4)C(=O)C3C3(C(=O)Nc4c(Cl)cc(Cl)cc43)N2C1 (stereo partly drawn) [Example 10, (7′S)-5,7-dichloro-2′-(3,5-dichlorophenyl)-7′-fluoro-7′-methyl-3a′,6′,7′,8′,8a′,8b′-hexahydro-1′H-spiro[indoline-3,4′-pyrrolo[3,4-a]pyrrolizine]-1′,2,3′(2′H)-trione]	+++ (NAUC “+++” refers to an observed NAUC >170% of positive control)	+++ (NAUC “+++” refers to an observed NAUC >170% of positive control)
O=C1C2C3C[C@H](O)CN3C3(C(=O)Nc4c(Br)cc(Br)cc43)C2C(=O)N1c1cc(Cl)cc(Cl)c1 (stereo partly drawn) [Example 40]	+++ (NAUC “+++” refers to an observed NAUC >170% of positive control)	+++ (NAUC “+++” refers to an observed NAUC >170% of positive control)
O=C1C2C3CC(F)(F)CN3C3(C(=O)Nc4c(Cl)cc(Cl)cc43)C2C(=O)N1c1cc(Cl)cc(Cl)n1 (stereo not drawn) [Example 193]	+++ (NAUC “+++” refers to an observed NAUC >170% of positive control)	+++ (NAUC “+++” refers to an observed NAUC >170% of positive control)
COc1c(Cl)cc(N2C(=O)C3C4C[C@H](C(F)(F)F)CN4C4(C(=O)Nc5c(Cl)cc(Cl)cc54)C3C2=O)cc1Cl (stereo partly drawn) [Example 245]	+++ (NAUC “+++” refers to an observed NAUC >170% of positive control)	+++ (NAUC “+++” refers to an observed NAUC >170% of positive control)
O=C1C2C3C[C@H](O)CN3C3(C(=O)Nc4ccc(C(F)(F)F)cc43)C2C(=O)N1c1cc(Cl)cc(Cl)c1 (stereo partly drawn) [Example 42]	++ (NAUC “++” refers to an observed NAUC 170-140% of positive control)	++ (NAUC “++” refers to an observed NAUC 170-140% of positive control)
O=C1C2C3C[C@H](O)CN3C3(C(=O)Nc4c(Cl)cc(Cl)cc43)C2C(=O)N1c1cc(Br)cc(Br)c1 (stereo partly drawn) [Example 45]	+ (NAUC “+” refers to an observed NAUC <140% of positive control)	+++ (NAUC “+++” refers to an observed NAUC >170% of positive control)
[2H]C12C(=O)N(c3cc(Cl)cc(Cl)c3)C(=O)C1([2H])C1(C(=O)Nc3c(Cl)cc(Cl)cc31)N1C[C@@H](O)CC12 (single isomer, unassigned) [Example 5, (7′S)-5,7-Dichloro-2′-(3,5-dichlorophenyl)-7′-hydroxy-3a′,6′,7′,8′,8a′,8b′-hexahydro-1′H-spiro[indoline-3,4′-pyrrolo[3,4-a]pyrrolizine]-1′,2,3′(2′H)-trione-3a′,8b′-d2]	+++ (NAUC “+++” refers to an observed NAUC >170% of positive control)	+++ (NAUC “+++” refers to an observed NAUC >170% of positive control)
O=C1C2C3CC(C(F)F)CN3C3(C(=O)Nc4c(Cl)cc(Cl)cc43)C2C(=O)N1c1cc(Cl)cc(Cl)n1 (stereo not drawn) [Example 131]	+ (NAUC “+” refers to an observed NAUC <140% of positive control)	++ (NAUC “++” refers to an observed NAUC 170-140% of positive control)
CC(=O)Oc1c(Cl)cc(Cl)cc1N1C(=O)C2C3C[C@H](O)CN3C3(C(=O)Nc4c(Cl)cc(Cl)cc43)C2C1=O (stereo partly drawn) [Example 91]	+ (NAUC “+” refers to an observed NAUC <140% of positive control)	+++ (NAUC “+++” refers to an observed NAUC >170% of positive control)
C[C@]1(OCc2ccccc2)CC2C3C(=O)N(c4cc(Cl)cc(Cl)c4)C(=O)C3C3(C(=O)Nc4c(Cl)cc(Cl)cc43)N2C1 (single isomer, unassigned) [Example 240]	+++ (NAUC “+++” refers to an observed NAUC >170% of positive control)	+ (NAUC “+” refers to an observed NAUC <140% of positive control)
O=C1C2C3CCCN3C3(C(=O)Nc4c(Cl)cc(F)cc43)C2C(=O)N1c1cc(F)cc(Cl)c1 (stereo not drawn) [Example 36]	+ (NAUC “+” refers to an observed NAUC <140% of positive control)	+++ (NAUC “+++” refers to an observed NAUC >170% of positive control)
CC(C)C1NC2(C(=O)Nc3c(Cl)cc(Cl)cc32)C2C(=O)N(c3cc(Cl)cc(Cl)c3)C(=O)C12 (single isomer, unassigned) [Example 242]	+++ (NAUC “+++” refers to an observed NAUC >170% of positive control)	+++ (NAUC “+++” refers to an observed NAUC >170% of positive control)
